From ChEMBL document CHEMBL6109139, “Rational Design of the First Dual Agonist at Trace Amine-Associated Receptor 1 and 5-HT2C Receptors Based on Binding Pocket Similarity for the Treatment of Schizophrenia and Alzheimer's Disease-Related Psychosis” (J Med Chem, 2025)

Key:
[1] = target: T1, 5-hydroxytryptamine receptor 2C (Homo sapiens, UniProt P28335); experiment: Partial agonist activity at recombinant human 5-HT2CR expressed in HEK293 cells incubated for 2 hrs by FLIPR calcium assay; assay type: functional, cell-based
T1 sequence (P28335 whole entry): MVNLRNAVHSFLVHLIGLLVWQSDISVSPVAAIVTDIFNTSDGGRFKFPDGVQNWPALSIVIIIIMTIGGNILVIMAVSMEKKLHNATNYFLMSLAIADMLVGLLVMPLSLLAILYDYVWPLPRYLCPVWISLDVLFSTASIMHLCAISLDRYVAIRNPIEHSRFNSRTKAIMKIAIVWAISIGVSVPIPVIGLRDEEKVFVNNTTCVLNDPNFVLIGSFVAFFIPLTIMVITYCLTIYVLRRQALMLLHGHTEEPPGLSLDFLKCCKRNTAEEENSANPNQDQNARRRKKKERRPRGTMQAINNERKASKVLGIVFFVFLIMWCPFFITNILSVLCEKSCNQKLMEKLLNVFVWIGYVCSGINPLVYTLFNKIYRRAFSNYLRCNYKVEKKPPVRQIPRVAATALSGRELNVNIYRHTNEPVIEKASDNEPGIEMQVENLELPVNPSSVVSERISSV

[2] = Apparent permeability across apical to basolateral side in human Caco-2 cells at 2 uM by LC-MS/MS analysis; assay type: ADME, cell-based
[3] = Efflux ratio of apparent permeability across apical to basolateral side in human Caco-2 cells at 2 uM by LC-MS/MS analysis; assay type: ADME, cell-based
[4] = Metabolic stability in rat liver microsomes assessed as intrinsic clearance at 1 uM incubated for 60 mins by LC-MS/MS analysis; assay type: ADME, Microsome; details: read-out: CLH
[5] = Metabolic stability in human liver microsomes assessed as intrinsic clearance at 1 uM incubated for 60 mins by LC-MS/MS analysis; assay type: ADME, Microsome; details: read-out: CLH
[6] = Plasma protein binding in rat assessed as unbound fraction by LC-MS/MS analysis; assay type: ADME, cell-free
[7] = Plasma protein binding in dog assessed as unbound fraction by LC-MS/MS analysis; assay type: ADME, cell-free, Canis lupus familiaris
[8] = Plasma protein binding in human assessed as unbound fraction by LC-MS/MS analysis; assay type: ADME, cell-free
[9] = target: Cytochrome P450 1A2 (Homo sapiens, UniProt P05177); experiment: Inhibition of CYP1A2 in human liver microsomes in presence of NADPH by LC-MS/MS analysis; assay type: ADME, Microsome
Sequence of Cytochrome P450 1A2 (P05177 whole entry): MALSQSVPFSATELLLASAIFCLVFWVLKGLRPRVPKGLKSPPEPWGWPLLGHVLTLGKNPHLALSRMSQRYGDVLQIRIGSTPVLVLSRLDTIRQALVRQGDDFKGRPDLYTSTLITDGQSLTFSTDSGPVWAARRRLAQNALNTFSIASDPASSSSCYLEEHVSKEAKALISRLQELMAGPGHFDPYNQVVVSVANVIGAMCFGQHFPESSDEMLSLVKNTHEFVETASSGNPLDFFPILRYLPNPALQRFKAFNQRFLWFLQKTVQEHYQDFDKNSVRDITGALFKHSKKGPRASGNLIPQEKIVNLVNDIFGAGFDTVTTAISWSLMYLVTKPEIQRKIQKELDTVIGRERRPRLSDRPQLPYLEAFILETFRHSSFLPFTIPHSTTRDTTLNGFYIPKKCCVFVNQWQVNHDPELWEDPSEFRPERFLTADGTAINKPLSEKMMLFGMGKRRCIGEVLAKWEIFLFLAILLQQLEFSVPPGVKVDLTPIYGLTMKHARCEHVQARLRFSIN

[10] = target: Cytochrome P450 2B6 (Homo sapiens, UniProt P20813); experiment: Inhibition of CYP2B6 in human liver microsomes in presence of NADPH by LC-MS/MS analysis; assay type: ADME, Microsome
Sequence of Cytochrome P450 2B6 (P20813 whole entry): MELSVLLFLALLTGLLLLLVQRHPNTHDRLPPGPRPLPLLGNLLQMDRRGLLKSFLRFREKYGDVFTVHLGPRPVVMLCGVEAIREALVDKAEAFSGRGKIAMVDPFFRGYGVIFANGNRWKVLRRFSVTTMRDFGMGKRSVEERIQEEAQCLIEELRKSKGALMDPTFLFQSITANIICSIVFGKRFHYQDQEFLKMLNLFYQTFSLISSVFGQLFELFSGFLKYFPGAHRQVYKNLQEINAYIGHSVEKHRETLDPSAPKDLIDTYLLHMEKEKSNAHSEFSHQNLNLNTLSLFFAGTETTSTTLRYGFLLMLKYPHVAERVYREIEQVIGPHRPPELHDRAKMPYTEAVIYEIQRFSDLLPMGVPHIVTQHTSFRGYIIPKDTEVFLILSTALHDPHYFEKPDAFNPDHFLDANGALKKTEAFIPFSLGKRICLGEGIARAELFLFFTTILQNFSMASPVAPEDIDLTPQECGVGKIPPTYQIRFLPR

[11] = target: Cytochrome P450 2C8 (Homo sapiens, UniProt P10632); experiment: Inhibition of CYP2C8 in human liver microsomes in presence of NADPH by LC-MS/MS analysis; assay type: ADME, Microsome
Sequence of Cytochrome P450 2C8 (P10632 whole entry): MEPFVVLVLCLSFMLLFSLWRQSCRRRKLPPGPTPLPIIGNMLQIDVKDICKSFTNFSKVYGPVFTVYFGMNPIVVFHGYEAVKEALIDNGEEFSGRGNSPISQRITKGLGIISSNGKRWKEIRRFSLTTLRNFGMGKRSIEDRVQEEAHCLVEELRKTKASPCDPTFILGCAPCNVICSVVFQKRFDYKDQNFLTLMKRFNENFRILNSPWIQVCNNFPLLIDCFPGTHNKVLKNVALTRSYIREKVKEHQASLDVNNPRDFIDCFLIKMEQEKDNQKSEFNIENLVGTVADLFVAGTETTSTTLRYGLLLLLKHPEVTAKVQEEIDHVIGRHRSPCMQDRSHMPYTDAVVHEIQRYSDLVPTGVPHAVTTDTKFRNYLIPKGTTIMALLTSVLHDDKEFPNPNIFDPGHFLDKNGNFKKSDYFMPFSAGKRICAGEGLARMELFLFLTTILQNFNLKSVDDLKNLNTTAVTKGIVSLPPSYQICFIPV

[12] = target: Cytochrome P450 2C9 (Homo sapiens, UniProt P11712); experiment: Inhibition of CYP2C9 in human liver microsomes in presence of NADPH by LC-MS/MS analysis; assay type: ADME, Microsome
Sequence of Cytochrome P450 2C9 (P11712 whole entry): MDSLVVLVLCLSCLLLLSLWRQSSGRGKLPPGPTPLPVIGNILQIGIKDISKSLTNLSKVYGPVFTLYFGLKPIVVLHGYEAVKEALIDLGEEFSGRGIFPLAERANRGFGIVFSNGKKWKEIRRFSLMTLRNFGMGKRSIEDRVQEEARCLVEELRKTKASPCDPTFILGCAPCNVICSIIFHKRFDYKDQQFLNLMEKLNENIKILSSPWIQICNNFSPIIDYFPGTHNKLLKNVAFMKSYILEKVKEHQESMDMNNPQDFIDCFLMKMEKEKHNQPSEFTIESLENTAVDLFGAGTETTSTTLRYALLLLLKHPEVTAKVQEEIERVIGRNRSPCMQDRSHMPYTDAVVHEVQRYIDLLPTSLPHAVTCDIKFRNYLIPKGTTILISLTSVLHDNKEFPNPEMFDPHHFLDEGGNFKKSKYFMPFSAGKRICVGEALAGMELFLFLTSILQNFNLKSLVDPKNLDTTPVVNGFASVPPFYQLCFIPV

[13] = target: Cytochrome P450 2C19 (Homo sapiens, UniProt P33261); experiment: Inhibition of CYP2C19 in human liver microsomes in presence of NADPH by LC-MS/MS analysis; assay type: ADME, Microsome
Sequence of Cytochrome P450 2C19 (P33261 whole entry): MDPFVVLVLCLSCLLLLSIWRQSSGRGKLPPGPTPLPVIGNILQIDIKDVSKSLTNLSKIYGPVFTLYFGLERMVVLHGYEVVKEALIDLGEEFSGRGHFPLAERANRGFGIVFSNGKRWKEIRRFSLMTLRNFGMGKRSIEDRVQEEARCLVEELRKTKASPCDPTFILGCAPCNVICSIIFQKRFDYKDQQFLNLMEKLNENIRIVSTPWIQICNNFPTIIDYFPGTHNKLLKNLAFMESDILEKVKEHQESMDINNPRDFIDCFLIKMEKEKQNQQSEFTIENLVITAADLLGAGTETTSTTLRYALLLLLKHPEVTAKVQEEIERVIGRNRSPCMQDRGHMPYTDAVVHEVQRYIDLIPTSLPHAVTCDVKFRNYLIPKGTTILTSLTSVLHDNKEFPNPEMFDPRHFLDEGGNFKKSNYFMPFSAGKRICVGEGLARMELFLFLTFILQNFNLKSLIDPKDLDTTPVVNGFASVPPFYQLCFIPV

[14] = Inhibition of CYP2D6 in human liver microsomes in presence of NADPH by LC-MS/MS analysis; assay type: ADME, Microsome
[15] = target: Cytochrome P450 3A4 (Homo sapiens, UniProt P08684); experiment: Inhibition of CYP3A4 in human liver microsomes in presence of NADPH by LC-MS/MS analysis; assay type: ADME, Microsome
Sequence of Cytochrome P450 3A4 (P08684 whole entry): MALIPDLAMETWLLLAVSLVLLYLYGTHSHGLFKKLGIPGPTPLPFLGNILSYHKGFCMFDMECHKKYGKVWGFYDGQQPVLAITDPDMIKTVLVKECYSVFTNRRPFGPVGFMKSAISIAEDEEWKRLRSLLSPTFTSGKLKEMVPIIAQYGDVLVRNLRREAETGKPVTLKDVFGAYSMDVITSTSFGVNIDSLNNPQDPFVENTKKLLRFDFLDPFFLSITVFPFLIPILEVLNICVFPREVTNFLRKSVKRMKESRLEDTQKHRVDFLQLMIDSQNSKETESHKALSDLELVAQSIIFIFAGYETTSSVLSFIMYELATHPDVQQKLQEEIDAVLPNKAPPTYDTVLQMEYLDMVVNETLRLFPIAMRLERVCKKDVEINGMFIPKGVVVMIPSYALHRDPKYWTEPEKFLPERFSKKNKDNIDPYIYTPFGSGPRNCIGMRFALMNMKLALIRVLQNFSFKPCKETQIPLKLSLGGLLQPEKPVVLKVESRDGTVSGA

[16] = Drug uptake in male Sprague-Dawley rat brain assessed as parent compound remaining measured after 6 hrs; assay type: ADME, tissue-based; details: read-out: Activity

Work on `COc1ccsc1C1CNCCO1` (stereo in doubt; 25a) yielded an EC50 [1] of 4.39 µM, a Papp A→B at 2 µM [2] of 46 ×10⁻⁶ cm/s and an efflux ratio at 2 µM [3] of 0.6. The CLint scaled at 1 µM [4] was < 13.5 mL/min/kg, the CLint scaled at 1 µM [5] was < 6.8 mL/min/kg and the fraction unbound [6] was 0.872. For the same molecule, the fraction unbound [7] was 0.73, the fraction unbound [8] was 0.747 and the IC50 [9] was > 50 µM. For the same molecule, the IC50 [10] was > 50 µM, the IC50 [11] was > 50 µM and the IC50 [12] was > 50 µM. For the same molecule, the IC50 [13] was > 50 µM, the IC50 [14] was > 50 µM and the IC50 [15] was > 50 µM. For the same molecule, the remaining at 6 h [16] was < 20%.
